Reference: patent US11584714B2 (priority 2018, dated 2023)
Counter-ions that a name gives are not always drawn. Like-named read-outs stand apart in the source and are kept apart here. Blank lines part the entries; values can stand above or below the compound they belong to.

How the values were obtained:
Format in all cases: biochemical
MASP-2 (CCP1-CCP2-SP) = MASP-2 (CCP1-CCP2-SP) (Homo sapiens (Human), UniProt O00187); assay: biochemical
human α-thrombin = human α-thrombin (Homo sapiens (Human), UniProt P00734); assay: Enzymatic assay for thrombin (Boc-VPR-AMC substrate)
mMASP-2 = mMASP-2 (Mus musculus (Mouse), UniProt Q91WP0); assay: Enzymatic inhibition of mMASP-2; settings: read-out: mMASP-2 Ki
Lectin Pathway = assay: Lectin pathway activation assay in human serum (mannan-coated ELISA, C3c detection); settings: 1% human serum
[1] = MASP-2 inhibition versus thrombin
[2] = selectivity for MASP-2 inhibition versus thrombin

Sequence of mMASP-2 (Q91WP0 20-685): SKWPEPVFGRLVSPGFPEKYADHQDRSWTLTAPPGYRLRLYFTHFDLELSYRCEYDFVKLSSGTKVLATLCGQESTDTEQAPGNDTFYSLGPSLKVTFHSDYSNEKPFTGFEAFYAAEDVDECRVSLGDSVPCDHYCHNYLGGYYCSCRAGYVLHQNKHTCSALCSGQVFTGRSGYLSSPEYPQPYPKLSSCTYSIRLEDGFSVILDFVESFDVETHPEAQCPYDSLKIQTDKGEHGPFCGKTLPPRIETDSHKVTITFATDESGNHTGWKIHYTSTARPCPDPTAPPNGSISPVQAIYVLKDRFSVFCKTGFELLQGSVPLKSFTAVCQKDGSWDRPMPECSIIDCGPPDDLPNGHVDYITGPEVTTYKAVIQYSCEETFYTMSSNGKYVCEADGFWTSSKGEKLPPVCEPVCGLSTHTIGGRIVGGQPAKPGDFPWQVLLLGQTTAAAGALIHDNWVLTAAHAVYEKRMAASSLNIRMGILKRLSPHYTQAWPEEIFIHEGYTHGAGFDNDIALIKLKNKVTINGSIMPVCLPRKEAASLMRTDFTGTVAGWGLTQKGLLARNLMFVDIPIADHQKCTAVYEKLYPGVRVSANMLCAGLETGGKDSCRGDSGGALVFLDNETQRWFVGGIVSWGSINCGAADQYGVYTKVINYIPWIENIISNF
Sequence of MASP-2 (CCP1-CCP2-SP) (O00187 445-686): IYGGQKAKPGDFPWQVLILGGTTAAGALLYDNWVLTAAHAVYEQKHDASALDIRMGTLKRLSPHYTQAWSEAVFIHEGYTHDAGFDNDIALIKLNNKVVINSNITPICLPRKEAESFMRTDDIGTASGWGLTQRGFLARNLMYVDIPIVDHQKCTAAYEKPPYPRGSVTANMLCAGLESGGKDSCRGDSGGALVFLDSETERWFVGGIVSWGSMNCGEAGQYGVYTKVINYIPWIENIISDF

SMILES: C[C@H](NC(=O)[C@H](N)CCc1ccccc1)C(=O)NCc1ccc2nc(N)[nH]c2c1 (single isomer, unassigned) [compound 1040, Di-trifluoroacetate salt]
- MASP-2 vs. thrombin selectivity (MASP-2 (CCP1-CCP2-SP); [1]): **** (>100-fold)
- Ki (MASP-2 (CCP1-CCP2-SP); read-out: MASP-2 Ki): < 500 nM
- Ki (human α-thrombin; read-out: Thrombin Ki): > 25 µM
- Ki (mMASP-2): < 500 nM
- IC50 (Lectin Pathway): 500 to 5000 nM

SMILES: Cc1nc(N)ccc1CNC(=O)C(C)NC(=O)[C@H]1C[C@H](c2cccc(-c3ccccc3)c2)CN1 (stereo in doubt) [compound 1360, (2R,4R)-4-([1,1′-Biphenyl]-3-yl)-N—((R)-1-(((6-amino-2-methylpyridin-3-yl)methyl)amino)-1-oxopropan-2-yl)pyrrolidine-2-carboxamide Di-trifluoroacetate salt]
- Ki (human α-thrombin; read-out: Thrombin Ki): > 25 µM
- Ki (mMASP-2): < 500 nM
- IC50 (Lectin Pathway): 50 to 500 nM

SMILES: C[C@H](NC(=O)[C@H](N)CCc1ccccc1)C(=O)NCCc1ccc(N)nc1 [compound 1015, (R)-2-Amino-N—((S)-1-((2-(6-aminopyridin-3-yl)ethyl)amino)-1-oxopropan-2-yl)-4-phenylbutanamide Dihydrochloride]
- Ki (human α-thrombin; read-out: Thrombin Ki): > 25 µM
- Ki (mMASP-2): < 25000 nM
- IC50 (Lectin Pathway): 5000 to 50000 nM

SMILES: C[C@H](NC(=O)[C@H](N)CCc1ccccc1)C(=O)NCCc1ccnc(N)c1 [compound 1016, (R)-2-Amino-N—((S)-1-((2-(2-aminopyridin-4-yl)ethyl)amino)-1-oxopropan-2-yl)-4-phenylbutanamide Dihydrochloride]
- Ki (human α-thrombin; read-out: Thrombin Ki): > 25 µM
- Ki (mMASP-2): < 25000 nM
- IC50 (Lectin Pathway): 5000 to 50000 nM

SMILES: C[C@H](NC(=O)[C@H](N)C1Cc2ccccc2C1)C(=O)NCc1ccc(C(=N)N)cc1 [compound 1035]
- MASP-2 vs. thrombin selectivity (MASP-2 (CCP1-CCP2-SP); [1]): ** (5.0 to 25-fold)
- Ki (MASP-2 (CCP1-CCP2-SP); read-out: MASP-2 Ki): < 500 nM
- Ki (human α-thrombin; read-out: Thrombin Ki): < 0.5 µM
- IC50 (Lectin Pathway): < 50 nM

SMILES: C[C@H](NC(=O)[C@H](N)CCCc1ccccc1)C(=O)NCc1ccc(C(=N)N)cc1 [compound 1042]
- MASP-2 vs. thrombin selectivity (MASP-2 (CCP1-CCP2-SP); [1]): ** (5.0 to 25-fold)
- Ki (MASP-2 (CCP1-CCP2-SP); read-out: MASP-2 Ki): < 500 nM
- Ki (human α-thrombin; read-out: Thrombin Ki): < 0.5 µM
- IC50 (Lectin Pathway): < 50 nM

SMILES: C[C@H](NC(=O)[C@H](N)CCc1ccccc1)C(=O)NCc1ccc2c(N)ncnc2c1 [compound 1060, (R)-2-Amino-N—((S)-1-(((4-aminoquinazolin-7-yl)methyl)amino)-1-oxopropan-2-yl)-4-phenylbutanamide Dihydrochloride]
- MASP-2 vs. thrombin selectivity (MASP-2 (CCP1-CCP2-SP); [1]): *** (25 to 100-fold)
- Ki (human α-thrombin; read-out: Thrombin Ki): > 25 µM
- Ki (mMASP-2): > 25000 nM
- IC50 (Lectin Pathway): > 50000 nM

SMILES: N=C(N)c1ccc(CNC(=O)[C@@H]2CCN2C(=O)[C@H](N)CCCc2ccccc2)cc1 [compound 1069]
- MASP-2 vs. thrombin selectivity (MASP-2 (CCP1-CCP2-SP); [1]): −− (less than 1.0-fold)
- Ki (MASP-2 (CCP1-CCP2-SP); read-out: MASP-2 Ki): < 500 nM
- Ki (human α-thrombin; read-out: Thrombin Ki): < 0.5 µM
- IC50 (Lectin Pathway): 500 to 5000 nM

SMILES: N=C(N)c1ccc(CNC(=O)[C@@H]2CCN2C(=O)[C@H](NCC(=O)O)C2CCCC2)cc1 [compound 1083]
- MASP-2 vs. thrombin selectivity (MASP-2 (CCP1-CCP2-SP); [1]): −− (less than 1.0-fold)
- Ki (MASP-2 (CCP1-CCP2-SP); read-out: MASP-2 Ki): < 500 nM
- Ki (human α-thrombin; read-out: Thrombin Ki): < 0.5 µM
- IC50 (Lectin Pathway): 5000 to 50000 nM

SMILES: C[C@H](NC(=O)[C@H](N)C1Cc2ccccc2C1)C(=O)NCc1ccc2c(N)nccc2c1 [compound 1088, (S)-2-((R)-2-Amino-2-(2,3-dihydro-1H-inden-2-yl)acetamido)-N-((1-aminoisoquinolin-6-yl)methyl)propanamide Dihydrochloride]
- Ki (MASP-2 (CCP1-CCP2-SP); read-out: MASP-2 Ki): < 500 nM
- Ki (mMASP-2): < 500 nM
- IC50 (Lectin Pathway): 50 to 500 nM

- Ki (human α-thrombin; read-out: Thrombin Ki): > 25 µM
- Ki (mMASP-2): < 500 nM
- IC50 (Lectin Pathway): 5000 to 50000 nM
SMILES: C[C@H](NC(=O)[C@H](N)C1Cc2ccccc2C1)C(=O)NCc1ccc2nc(N)ccc2c1 [compound 1091]

SMILES: C[C@H](NC(=O)[C@H](NCC(=O)O)C1CCCCC1)C(=O)NCc1ccc(C(=N)N)cc1 [compound 1094]
- MASP-2 vs. thrombin selectivity (MASP-2 (CCP1-CCP2-SP); [1]): −− (less than 1.0-fold)
- Ki (MASP-2 (CCP1-CCP2-SP); read-out: MASP-2 Ki): < 500 nM
- Ki (human α-thrombin; read-out: Thrombin Ki): < 0.5 µM
- IC50 (Lectin Pathway): 5000 to 50000 nM

SMILES: C[C@H](NC(=O)[C@H](N)Cc1csc2ccccc12)C(=O)NCc1ccc(C(=N)N)cc1 [compound 1099]
- MASP-2 vs. thrombin selectivity (MASP-2 (CCP1-CCP2-SP); [1]): −− (less than 1.0-fold)
- Ki (MASP-2 (CCP1-CCP2-SP); read-out: MASP-2 Ki): < 500 nM
- Ki (human α-thrombin; read-out: Thrombin Ki): < 0.5 µM
- IC50 (Lectin Pathway): 50 to 500 nM

SMILES: N=C(N)c1ccc(CNC(=O)[C@@H]2CCN2C(=O)[C@@H](CC2CCCCC2)NCC(=O)O)cc1 [compound 1114]
- MASP-2 vs. thrombin selectivity (MASP-2 (CCP1-CCP2-SP); [1]): −− (less than 1.0-fold)
- Ki (MASP-2 (CCP1-CCP2-SP); read-out: MASP-2 Ki): < 500 nM
- Ki (human α-thrombin; read-out: Thrombin Ki): < 0.5 µM
- IC50 (Lectin Pathway): 500 to 5000 nM

SMILES: N=C(N)c1ccc(CNC(=O)[C@@H]2CCCN2C(=O)[C@H](NCC(=O)O)C2CCCCC2)cc1 [compound 1115]
- MASP-2 vs. thrombin selectivity (MASP-2 (CCP1-CCP2-SP); [1]): −− (less than 1.0-fold)
- Ki (MASP-2 (CCP1-CCP2-SP); read-out: MASP-2 Ki): < 500 nM
- Ki (human α-thrombin; read-out: Thrombin Ki): < 0.5 µM
- IC50 (Lectin Pathway): 500 to 5000 nM

SMILES: N=C(N)c1ccc(CNC(=O)[C@@H]2CCN2C(=O)[C@H](NCC(=O)O)C2Cc3ccccc3C2)cc1 [compound 1129]
- MASP-2 vs. thrombin selectivity (MASP-2 (CCP1-CCP2-SP); [1]): −− (less than 1.0-fold)
- Ki (MASP-2 (CCP1-CCP2-SP); read-out: MASP-2 Ki): < 500 nM
- Ki (human α-thrombin; read-out: Thrombin Ki): < 0.5 µM
- IC50 (Lectin Pathway): 500 to 5000 nM

SMILES: N=C(N)c1ccc(CNC(=O)[C@@H]2CCN2C(=O)[C@@H](CCCc2ccccc2)NCC(=O)O)cc1 [compound 1131]
- MASP-2 vs. thrombin selectivity (MASP-2 (CCP1-CCP2-SP); [1]): −− (less than 1.0-fold)
- Ki (MASP-2 (CCP1-CCP2-SP); read-out: MASP-2 Ki): < 500 nM
- Ki (human α-thrombin; read-out: Thrombin Ki): < 0.5 µM
- IC50 (Lectin Pathway): 500 to 5000 nM

SMILES: Cc1ccc(CSC(C)(C)[C@@H](N)C(=O)N2CC[C@H]2C(=O)NCc2ccc(C(=N)N)cc2)cc1 [compound 1133]
- MASP-2 vs. thrombin selectivity (MASP-2 (CCP1-CCP2-SP); [1]): −− (less than 1.0-fold)
- Ki (MASP-2 (CCP1-CCP2-SP); read-out: MASP-2 Ki): < 500 nM
- Ki (human α-thrombin; read-out: Thrombin Ki): < 0.5 µM
- IC50 (Lectin Pathway): 5000 to 50000 nM

SMILES: C[C@@H](C(=O)NCc1ccc2c(N)nccc2c1)N(C)C(=O)[C@H](N)CCc1cccc(C(F)(F)F)c1 [compound 1139, (R)-2-Amino-N—((S)-1-(((1-aminoisoquinolin-6-yl)methyl)amino)-1-oxopropan-2-yl)-N-methyl-4-(3-(trifluoromethyl)phenyl)butanamide Dihydrochloride]
- Ki (MASP-2 (CCP1-CCP2-SP); read-out: MASP-2 Ki): < 500 nM
- Ki (mMASP-2): < 10000 nM
- IC50 (Lectin Pathway): 5000 to 50000 nM

SMILES: C[C@H](NC(=O)c1cc(-c2ccccc2)c(-c2ccccc2)[nH]1)C(=O)NCc1ccc(C(=N)N)cc1 [compound 1240, (S)—N-(1-((4-Carbamimidoylbenzyl)amino)-1-oxopropan-2-yl)-4,5-diphenyl-1H-pyrrole-2-carboxamide]
- Ki (MASP-2 (CCP1-CCP2-SP)): 500 to 2500 nM
- MASP-2 vs. thrombin selectivity (MASP-2 (CCP1-CCP2-SP); [2]): ** (≥5.0 to <25-fold)
- Ki (human α-thrombin; Thrombin Ki (μM)): 10 to 25 µM
- IC50 (Lectin Pathway): 500 to 5000 nM

- Ki (human α-thrombin; read-out: Thrombin Ki): > 25 µM
- Ki (mMASP-2): < 500 nM
- IC50 (Lectin Pathway): < 50 nM
SMILES: Cc1nc(N)ccc1CNC(=O)[C@H](C)NC(=O)C1=CC(c2ccccc2)C2=C(CC(C)(C)CC2=O)N1 (stereo partly drawn) [compound 1388, N-((S)-1-(((6-Amino-2-methylpyridin-3-yl)methyl)amino)-1-oxopropan-2-yl)-7,7-dimethyl-5-oxo-4-phenyl-1,4,5,6,7,8-hexahydroquinoline-2-carboxamide]

- Ki (human α-thrombin; read-out: Thrombin Ki): > 25 µM
- Ki (mMASP-2): < 500 nM
- IC50 (Lectin Pathway): 500 to 5000 nM
SMILES: Cc1nc(N)ccc1CNC(=O)[C@H](C)NC(=O)[C@H]1C[C@H](Cc2ccc(-c3ccc(F)cc3C#N)cc2)CN1 [compound 1396, (2R,4S)—N—((S)-1-(((6-Amino-2-methylpyridin-3-yl)methyl)amino)-1-oxopropan-2-yl)-4-((2′-cyano-4′-fluoro-[1,1′-biphenyl]-4-yl)methyl)pyrrolidine-2-carboxamide]

SMILES: C[C@H](NC(=O)[C@H]1C[C@H](Cc2ccccc2)CN1)C(=O)NCc1cnc2c(c1)c(Cl)cn2C [compound 1450, (2R,4S)-4-Benzyl-N-((S)-1-(((3-chloro-1-methyl-1H-pyrrolo[2,3-b]pyridin-5-yl)methyl)amino)-1-oxopropan-2-yl)pyrrolidine-2-carboxamide Dihydrochloride]
- Ki (MASP-2 (CCP1-CCP2-SP); read-out: MASP-2 Ki): < 500 nM
- MASP-2 vs. thrombin selectivity (MASP-2 (CCP1-CCP2-SP); [2]): **** (≥100-fold)
- Ki (mMASP-2): < 500 nM
- IC50 (Lectin Pathway): 50 to 500 nM
